Tests used:
Format in all cases: binding
[1] = target: T1, HDAC2 (Homo sapiens (Human), UniProt Q92769); assay: Reporter displacement assay (HDAC2); conditions: reporter probe displacement, Cheng Prusoff
Protocol: (§1) HDAC2 containing a C-terminal HIS-Tag (Proteros) and fluorescently-labeled anti-HIS-antibody are diluted in one vial in assay buffer 50 mM Tris, pH 8.0, 1 mM DTT, 150 mM NaCl, and 0.01% Tween20. Components are pre-incubated for 30 min, then a small volume of reporter probe (Proteros) is added from a highly concentrated stock and incubation is continued for another 30 min. Final concentrations after adding the reporter probe amount to 20 nM HDAC2, 4 nM antibody, and 180 nM probe.
Ten μl/well of pre-formed complex are transferred into 384 well assay plates (Corning). Compounds to be profiled are serially diluted from […] in DMSO and 60 nl are added to assay plates by pintool transfer (CybiWell, Cybio). Fluorescence intensity signal is read after 4 h in a Pherastar FS (BMG Labtech) at 337/665 nm.
(§2) For Kd determination, percent probe displacement values are calculated for each compound concentration and plotted against the compound concentration. IC50-like values (corresponding to 50% probe displacement) are calculated using standard fitting algorithms. Since the reporter probe is used at a concentration reflecting its own Kd value, compound Kd values can be calculated according to the Cheng Prusoff equation.
In the table, “A” indicates a Kd value of less than 0.1 μM; “B” a Kd value of between 0.1 μM and 0.5 μM; “C” a Kd value of greater than 0.5 μM and less than or equal to 5.0 μM; and “D” a Kd value of greater than 5.0 μM.

[2] = target: HDAC1 (Homo sapiens (Human), UniProt Q13547); assay: Reporter displacement assay (HDAC1); conditions: for Kd: reporter probe displacement, Cheng Prusoff
Protocol: [The procedure below names another target; the source lists this target under the same test.] as §1, with “min.” for “min. Final concentrations after adding the reporter probe amount to 20 nM HDAC2, 4 nM antibody, and 180 nM probe.”
Ten μl/well of pre-formed complex are transferred into 384 well assay plates (Corning). Compounds to be profiled are serially diluted from […] in DMSO and 60 nl are added to assay plates by pintool transfer (CybiWell, Cybio).
as §2, with “IC50-like values (corresponding to 50% probe displacement) are calculated using standard fitting algorithms.” left out

[3] = target: T1, HDAC2; assay: Reporter displacement assay (HDAC2)

HDAC1, sequence (Q13547 whole entry): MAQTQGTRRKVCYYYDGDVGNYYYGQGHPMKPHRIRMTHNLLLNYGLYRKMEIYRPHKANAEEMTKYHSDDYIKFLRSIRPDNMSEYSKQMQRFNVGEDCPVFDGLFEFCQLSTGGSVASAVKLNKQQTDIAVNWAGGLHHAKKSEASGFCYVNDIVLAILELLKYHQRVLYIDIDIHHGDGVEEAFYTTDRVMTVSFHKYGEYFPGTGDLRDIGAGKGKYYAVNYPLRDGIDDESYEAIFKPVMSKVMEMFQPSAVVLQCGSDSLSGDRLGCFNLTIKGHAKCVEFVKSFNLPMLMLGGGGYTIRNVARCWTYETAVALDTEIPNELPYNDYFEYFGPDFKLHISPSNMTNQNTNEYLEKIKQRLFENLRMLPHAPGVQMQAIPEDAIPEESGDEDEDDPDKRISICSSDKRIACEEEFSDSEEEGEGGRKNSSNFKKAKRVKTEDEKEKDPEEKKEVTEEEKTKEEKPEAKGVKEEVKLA
T1 sequence (Q92769 whole entry): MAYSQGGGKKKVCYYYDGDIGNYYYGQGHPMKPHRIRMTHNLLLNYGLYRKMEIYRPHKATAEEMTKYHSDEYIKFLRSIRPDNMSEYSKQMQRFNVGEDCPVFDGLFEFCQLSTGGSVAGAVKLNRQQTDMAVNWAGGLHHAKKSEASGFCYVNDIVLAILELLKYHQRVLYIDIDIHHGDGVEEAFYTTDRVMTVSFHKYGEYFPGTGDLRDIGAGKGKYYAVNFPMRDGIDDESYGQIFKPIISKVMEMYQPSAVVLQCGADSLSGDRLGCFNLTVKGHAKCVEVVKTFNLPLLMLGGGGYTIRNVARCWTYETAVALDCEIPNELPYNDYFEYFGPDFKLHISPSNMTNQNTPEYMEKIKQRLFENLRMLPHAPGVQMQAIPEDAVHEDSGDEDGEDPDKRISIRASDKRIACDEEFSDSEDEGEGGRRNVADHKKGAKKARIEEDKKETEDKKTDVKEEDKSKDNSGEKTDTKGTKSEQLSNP

| SMILES | Kd [1] [nM] | residence time [2] [min] | Kd [2] [nM] | residence time [3] [min] |
| --- | --- | --- | --- | --- |
| Nc1ccc(-c2cc(F)c(F)c(F)c2)cc1NC(=O)N1Cc2ccncc2C1 [Compound 142] | 500 to 5000 | 982 | 500 to 5000 | 1010 |
| Nc1ccc(-c2ccncc2)cc1NC(=O)N1CCC2(CCN(CCF)C2)CC1 [Compound 144] | 500 to 5000 | 296 | 500 to 5000 | 1490 |
| Cn1cc(-c2ccc(N)c(NC(=O)N3Cc4ccncc4C3)c2)cn1 [Compound 145] | 100 to 500 | 876 | 100 to 500 | 1250 |
| Nc1ccc(-c2ccc(F)cc2)cc1NC(=O)N1CC2(CCOCC2)C1 [Compound 148] | 500 to 5000 | 233 | 500 to 5000 | 809 |
| CNC(=O)N1CCc2nc(C(=O)Nc3cc(-c4ccc(F)cc4)ccc3N)sc2C1 [Compound 152] | < 100 | 1360 | < 100 | 2330 |
| Nc1ccc(-c2ccc(F)cc2)cc1NC(=O)N1CC2(CCCCO2)C1 [Compound 153] | 500 to 5000 | 457 | 100 to 500 | 1290 |
| CC(C)COC(=O)N1CC2CN(C(=O)Nc3cc(-c4ccc(F)cc4)ccc3N)CC2C1 (stereo not drawn) [Compound 157] | 100 to 500 | 838 | < 100 | 1360 |
| Nc1ccc(-c2ccc(F)cc2)cc1NC(=O)N1CC2CN(C(=O)OC3CC3)CC2C1 (stereo not drawn) [Compound 158] | 100 to 500 | 1220 | < 100 | 2140 |
| CC(C)(C)OC(=O)N1CCC2(CCN(C(=O)Nc3cc(-c4ccc(F)cc4)ccc3N)CC2)C1 [Compound 161] | 100 to 500 | 1170 | < 100 | 2640 |
| Nc1ccc(-c2ccc(F)cc2)cc1NC(=O)N1CCC2(CC1)CCN(C1COC1)C2 [Compound 164] | 100 to 500 | 1430 | 100 to 500 | 2210 |
| Nc1ccc(-c2ccncc2)cc1NC(=O)N1CCC2(CC1)CCN(C1COC1)C2 [Compound 165] | 100 to 500 | 259 | 500 to 5000 | 1720 |
| Nc1ccc(-c2ccc(F)cc2)cc1NC(=O)N1CC2CCNCC2C1 (stereo not drawn) [Compound 170] | 500 to 5000 | 342 | 500 to 5000 | 2160 |
| Nc1ccc(-c2ccc(F)cc2)cc1NC(=O)N1CCC2(CCOCC2)C1 [Compound 172] | 100 to 500 | 299 | 100 to 500 | 987 |
| Nc1ccc(-c2ccc(F)cc2)cc1NC(=O)N1CCC2(CCOC2)CC1 [Compound 173] | 100 to 500 | 1210 | < 100 | 1250 |
| Nc1ccc(-c2ccncc2)cc1NC(=O)c1nc2c(s1)CCNC2 [Compound 174] | < 100 | 1350 | < 100 | 1940 |
| Nc1ccc(-c2ccc(F)cc2)cc1NC(=O)c1nc2c(s1)CCNC2 [Compound 175] | < 100 | 1170 | < 100 | 2710 |

Second part, the compound after the results:

| Kd [1] [nM] | residence time [2] [min] | Kd [2] [nM] | residence time [3] [min] | SMILES |
| --- | --- | --- | --- | --- |
| 100 to 500 | 724 | 100 to 500 | 2370 | COCCN1CCC2(CCN(C(=O)Nc3cc(-c4ccc(F)cc4)ccc3N)CC2)C1 [Compound 138] |
| < 100 | 1450 | < 100 | 2260 | COc1ccc(-c2ccc(N)c(NC(=O)N3Cc4ccncc4C3)c2)cc1 [Compound 139] |
| 500 to 5000 | 34 | 500 to 5000 | 341 | Nc1ccc(-c2ccc(C(F)(F)F)cc2)cc1NC(=O)N1Cc2ccncc2C1 [Compound 140] |
| 100 to 500 | 1200 | < 100 | 1490 | Nc1ccc(-c2ccc(F)cc2)cc1NC(=O)N1CCC2(CCN(CCF)C2)CC1 [Compound 143] |
| 500 to 5000 | 540 | 100 to 500 | 1280 | Nc1ccc(-c2ccccn2)cc1NC(=O)N1Cc2ccncc2C1 [Compound 146] |
| 100 to 500 | 1340 | < 100 | 1620 | Nc1ccc(-c2ccc(F)cc2)cc1NC(=O)c1nc2c(s1)CNCC2 [Compound 147] |
| 100 to 500 | 124 | 100 to 500 | 573 | N#Cc1ccc(-c2ccc(N)c(NC(=O)N3Cc4ccncc4C3)c2)cc1 [Compound 149] |
| 500 to 5000 | 1080 | 100 to 500 | 1010 | Nc1ccc(-c2ccc(F)cc2)cc1NC(=O)c1cn2c(n1)CCCC2 [Compound 150] |
| < 100 | 1130 | < 100 | 6280 | Nc1ccc(-c2ccoc2)cc1NC(=O)N1Cc2ccncc2C1 [Compound 151] |
| 100 to 500 | 1350 | 100 to 500 | 1540 | COC(=O)N1CC2CN(C(=O)Nc3cc(-c4ccc(F)cc4)ccc3N)CC2C1 (stereo not drawn) [Compound 154] |
| 500 to 5000 | 1630 | 100 to 500 | 1720 | CCOC(=O)N1CC2CN(C(=O)Nc3cc(-c4ccc(F)cc4)ccc3N)CC2C1 (stereo not drawn) [Compound 155] |
| 100 to 500 | 1200 | < 100 | 1800 | CC(C)OC(=O)N1CC2CN(C(=O)Nc3cc(-c4ccc(F)cc4)ccc3N)CC2C1 (stereo not drawn) [Compound 156] |
| 100 to 500 | 1060 | < 100 | 2640 | Nc1ccc(-c2ccc(F)cc2)cc1NC(=O)N1CC2CN(C(=O)OC3CCC3)CC2C1 (stereo not drawn) [Compound 159] |
| 100 to 500 | 848 | 100 to 500 | 1730 | CC(C)CC(=O)N1CC2CN(C(=O)Nc3cc(-c4ccc(F)cc4)ccc3N)CC2C1 (stereo not drawn) [Compound 160] |
| < 100 | 946 | < 100 | 1340 | Nc1ccc(-c2ccc(OC(F)F)cc2)cc1NC(=O)N1Cc2ccncc2C1 [Compound 162] |
| 500 to 5000 | 84 | 500 to 5000 | 521 | CC(C)(C)OC(=O)N1CCC2(CC1)CN(C(=O)Nc1cc(-c3ccc(F)cc3)ccc1N)C2 [Compound 166] |
| 500 to 5000 | 140 | 500 to 5000 | 864 | Nc1ccc(-c2ccc(C(F)(F)F)cn2)cc1NC(=O)N1Cc2ccncc2C1 [Compound 167] |
| < 100 | 1380 | < 100 | 5570 | Nc1ccc(-c2ccco2)cc1NC(=O)N1Cc2ccncc2C1 [Compound 168] |
| 500 to 5000 | 120 | 500 to 5000 | 716 | Nc1ccc(-c2ccc(F)cc2)cc1NC(=O)N1CC2(CCNCC2)C1 [Compound 169] |
| 100 to 500 | 765 | 100 to 500 | 1610 | CC(C)(C)OC(=O)N1CCC2CN(C(=O)Nc3cc(-c4ccc(F)cc4)ccc3N)CC2C1 (stereo not drawn) [Compound 171] |

Reference: patent US10421756B2, “Heterobicyclic N-aminophenyl-amides as inhibitors of histone deacetylase” (Rodin Therapeutics, Inc., priority 2015, dated 2019)
